The series in a line: Transdermal delivery and tolerability of Rivastigmine patches. Format: in vivo.

Structures are written as SMILES.

Turning to `CCN(C)C(=O)Oc1cccc([C@H](C)N(C)C)c1` [Rivastigmine, (S)-{3-[α-(Dimethylamino)ethyl]phenyl}-N-ethyl-N-methylcarbamate], the tolerability entry (dose of 36 mg free base in up to 80 cm^2 of patches) is listed as “well tolerated”. The molecule further showed an amount absorbed (patches containing 36 mg Rivastigmine, up to 80 cm^2) of 12 mg.
